Data from the METLIN SMRT retention time set (Domingo-Almenara et al. 2019).

Assay: gradient 5% acetonitrile 3 min, to 50% in 2 min, to 85% in 15 min, held 3 min, 100 µL/min
Details: column: Zorbax Extend-C18 2.1 x 50 mm; eluents: water / acetonitrile, 0.1% formic acid
Procedure, shortened: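 The mobile phases were water and acetonitrile, each with 0.1% formic acid, pumped at 100 μL/min through a Zorbax Extend-C18 column (2.1 × 50 mm, 1.8 μm). Pure standards were injected as mixtures of ~100 molecules and detected by a quadrupole time-of-flight mass spectrometer in positive and negative ionization mode. Retention time came from computationally picked adduct peaks, each inspected by hand.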

SMILES | RP-LC retention time [s]
O=C(Cc1ccsc1)Nc1ccc2c(N3CCOCC3)ncnc2c1 | 619
COc1ccccc1NC(=O)C1CCN(S(=O)(=O)c2cn(C(C)C)cn2)CC1 | 757
O=C(CC1CCCC1)N1CCN(c2ncccc2-c2nnc(C3CC3)o2)CC1 | 828
COc1ccc(C2c3[nH]c4ccccc4c3CCN2C(=O)c2ccncc2)cc1 (stereo unspecified) | 877
Cc1nc(CNS(=O)(=O)c2cc([N+](=O)[O-])ccc2C)cs1 | 716
CC1=NS(=O)(=O)N(Cc2ccccc2)C=C1C(=O)OCc1ccc(F)cc1 | 1080
Cc1ccc(Nc2c(-c3ccc(Cl)cc3)nc3cccc(C)n23)cc1 | 810
COC(=O)c1cc2c(=O)n(-c3nc4ccc(Cl)cc4s3)ccc2nc1C | 1350
COc1cccc(Cn2nc3c(S(=O)(=O)N4CCCCCC4)cccn3c2=O)c1 | 918
CCN1CCN(C(=O)c2nc(N3CCSCC3)c3cnn(C)c3n2)CC1 | 604
Cc1cc(=O)n(CC(=O)Nc2ccc(F)c(F)c2)c(N)n1 | 598
CSc1cccc(NC(=O)Cn2ncc3c(c2=O)N(CC2CC2)C(=O)CS3)c1 | 1190
CCN(CC)Cc1ccc2c(c1)CN(C(=O)NC1CCCC1)CCO2 | 558
CCCOc1ccccc1Nc1nc(C(=O)OCC)nc2ccccc12 | 1040
Cc1ccc(N2CC(c3noc(-c4ccco4)n3)CC2=O)cc1 (stereo unspecified) | 877
c1cc(-c2nc(-c3ccc4c(c3)ncn4CCN3CCCCC3)no2)cs1 | 609
Nc1ccc2c(c1Cl)C(=O)c1ccc(N)c(Cl)c1C2=O | 854
Fc1ccc(-n2cc(-c3noc(-c4nccc5ccccc45)n3)nn2)cc1 | 1120
Cc1cccc(S(=O)(=O)N2CCc3c(C(=O)NCCCN4CCCCC4)cccc32)c1 | 680
O=c1c2cc(-c3cccs3)nn2cnn1Cc1nc(-c2cccc(Br)c2)no1 | 1150
CCCc1noc(-c2ccnc(-n3ncc(C(=O)Nc4ccc(C)c(F)c4)c3C)c2)n1 | 1170
O=S(=O)(c1ccccc1C(F)(F)F)N1CCC2(CCN(c3cccnc3)C2)C1 (stereo unspecified) | 694
CN(C)c1ccc(CNC(=O)CN2c3ccccc3NC3=C(C(=O)CCC3)C2c2ccco2)cc1 (stereo unspecified) | 628

SMILES | RP-LC retention time [s]
CN1C(=O)CCc2cc(NS(=O)(=O)c3ccc(Br)cc3)ccc21 | 810
Cc1cc(C)cc(NC(=O)c2cn(C)nc2S(=O)(=O)N2CCSCC2)c1 | 1010
CCCNc1cc(N2CCC(CCC(=O)NCc3cccs3)CC2)ncn1 | 661
O=C(NCCC1=CCCCC1)C(=O)NCC1(c2cccs2)CCCC1 | 1240
CCOc1ccccc1-c1noc(Cn2c(=O)n(Cc3ccccc3)c(=O)c3sccc32)n1 | 1090
COc1ccc2c(c1O)[C@]13CCN(C)[C@H](C2)[C@@H]1CCC(=O)C3 | 622
CCCn1ccc2sc(C)c(C(=O)NCc3ccccc3OCC)c2c1=O | 982
Cc1ccccc1Cn1nc2c(S(=O)(=O)N3CCCC3)cccn2c1=O | 846
CCCOc1ccc(C2C(=O)N(C3CCCCC3)CC(=O)N2Cc2ccco2)cc1OC (stereo unspecified) | 973
Cc1ccc(C(=O)Nc2cc(-c3ccsc3)no2)c(C)c1 | 1030
CCC(=O)N(C1CCOCC1)C1CCN(S(=O)(=O)c2cc(F)cc(F)c2)CC1 | 856
COc1ccc(NS(=O)(=O)c2cn(CC(C)C)c3ncccc23)cc1 | 896
CCc1nc2c(NC(=O)c3ccc(C(F)(F)F)cc3)cccn2n1 | 957
CC(C)N1CCN(C(=O)c2csc(-c3ccc(N4CCCC4)nc3)n2)CC1 | 559
COc1cc(OC)c(NC(=O)Cc2nnc(-c3cnccn3)o2)cc1Cl | 647
Cc1ccc(Cn2nc3ccc(S(=O)(=O)N4CCCCC4)cn3c2=O)cc1C | 1020
COCCn1cc2c3c(cccc31)CN(C(=O)Nc1cc(Cl)ccc1C)CC2 | 679
CCCN1CCn2cc(S(=O)(=O)Nc3ccc(C)cc3)cc2C1=O | 771
Cc1cnnn1-c1ccc(C(=O)Nc2nccs2)cc1 | 623
COc1cc(OC)cc(N2C=C(C#N)S(=O)(=O)c3ccccc32)c1 | 910
CC(C)C(=O)Nc1ccc(OCc2cc(C(=O)NC3CCCC3)no2)cc1 | 837
O=C(Cn1nc2n(c1=O)CCCC2)NCc1ccccc1Cl | 669
CCc1noc(-c2ccc(-n3ncc(C(=O)N4CCN(C)CC4)c3C)nc2)n1 | 618

SMILES | RP-LC retention time [s]
Cc1ccc(C(=O)NC2CCN(c3ccccc3)C2=O)c(C)c1 (stereo unspecified) | 797
CCC(C)N(CCNC(=O)Cn1c(=O)oc2ccccc21)Cc1cccs1 (stereo unspecified) | 652
COc1cc(NC(=O)Cn2nc(C(=O)N3CCCC3)c3ccccc32)cc(OC)c1 | 641
COc1cc(OC)c(NS(=O)(=O)c2ccc3c(c2)-c2oncc2CO3)cc1Cl | 910
Cc1cc(-c2csc(S(=O)(=O)NCC3CCN(Cc4ccc(Cl)cc4)CC3)c2)on1 | 733
CCOC(=O)c1noc2nc(C)nc(NCCCN3CCN(c4cc(C)ccc4C)CC3)c12 | 774
CCCNC(=O)C1CCCN(c2ccc(SCC(=O)Nc3ccc(C(=O)OCC)cc3)nn2)C1 (stereo unspecified) | 701
CC(=O)c1cccc(NC(=O)N2C[C@H](c3nc(-c4ccccc4)no3)[C@@H](C)C2)c1 | 938
CC1=C(c2ccc(C)c(C)c2)S(=O)(=O)N=C1N1CCCN(C(=O)NC(C)(C)C)CC1 | 888
CCCCNC(=O)C(C)n1nc(C)c2c(C)n(-c3ccccc3)nc2c1=O (stereo unspecified) | 787
O=C(c1ccc(C(F)(F)F)s1)N1CCN(c2nc(CN3CCCCC3)cs2)CC1 | 703
COc1ccccc1Oc1c(NS(=O)(=O)c2ccc(C(C)(C)C)cc2)nc(-c2ncccn2)nc1OCCO | 939
CC1=C(c2ccc(Cl)cc2)S(=O)(=O)N=C1N1CCCN(C(=O)C2CCC2)CC1 | 850
CCc1nc(-c2cc(S(=O)(=O)N3CCC(C(=O)NCc4cccs4)CC3)c(C)s2)no1 | 967
O=C1NC2(CCN(C(=O)Cc3cccc(F)c3)CC2)Nc2c(Cl)cccc21 | 785
COCc1nn(CC2CC2)c2c1CN(C(=O)Cc1ccccc1)CC2 | 732
CCc1ccc2nc(Nc3ncc4c(n3)CC(c3ccc(F)cc3)CC4=O)nc(C)c2c1 (stereo unspecified) | 835
O=C(Nc1ccccc1)Nc1ccccn1 | 736
Fc1ccc(Nc2nc(NCC3CCCO3)nc3[nH]ncc23)cc1 (stereo unspecified) | 578
CCCS(=O)(=O)N1CC(=O)N(c2ccc(C)c(Cl)c2)C(C)(C(=O)NC2CCCCC2)C1 (stereo unspecified) | 979
CCCCc1nnc(NC(=O)C2CCN(C(=O)c3ccc(Cl)cc3)CC2)s1 | 852
CC(C)N1CCN(C(=O)c2cn(-c3cc(N4CCSCC4)ncn3)cn2)CC1 | 596
CC1=C(c2cccc(Cl)c2)S(=O)(=O)N=C1N1CCC(NC(=O)C2CCCO2)CC1 (stereo unspecified) | 771

SMILES | RP-LC retention time [s]
CC1CCc2nc3ncn(CC(=O)NC(C)c4ccccc4)c(=O)c3cc2C1 (stereo unspecified) | 762
CC(NC(=O)c1ccc(CN2CCN(Cc3ccccc3)C(=O)C2=O)cc1)c1ccccc1 (stereo unspecified) | 812
O=C(CN1C(=O)NC2(CCCCC2)C1=O)Nc1cc(F)cc(F)c1 | 827
O=C1CCc2cc(NC(=O)c3cc(-c4ccccc4)nc4ccccc34)ccc2N1 | 818
CNC(=O)C1CC(=O)N(c2ccc(C)cc2)C1 (stereo unspecified) | 626
O=C(CCC1CCCN(c2cc(NC3CC3)ncn2)C1)NCc1cccs1 (stereo unspecified) | 640
N#C/C(=C\c1ccc[nH]1)C(=O)c1ccccc1 | 892
Cc1ccc(-c2nc3sc(N4CCCCC4)nn3c2NC(=O)C2CC2)cc1 | 885
Cc1nc(CCNS(=O)(=O)c2cccc(C(F)(F)F)c2)no1 | 807
O=C(Nc1cccc(-c2nnc3n2CCCC3)c1)c1ccn[nH]1 | 595
FC(F)(F)c1ccc(C2CNCCO2)cc1 (stereo unspecified) | 570
CCc1ccc(OCc2nc(C)c(C(=O)Nc3nc(-c4ccc(OC)cc4)cs3)s2)cc1 | 1290
CCc1ccccc1NC(=O)N1CCN(c2cc(C)nc(N3CCOCC3)n2)CC1 | 695
Cc1cc(C)c(NC(=O)Cn2cc3c(n2)CCCC3)c(C)c1 | 969
Cc1cc(NS(=O)(=O)c2ccc(F)cc2C)n(C2CCS(=O)(=O)C2)n1 (stereo unspecified) | 753
O=C(Cc1cccc(Cl)c1)Nc1cc(-c2ccccn2)no1 | 843
COc1ccc(CN2C(=O)c3ccccc3C2C(=O)NC2CCCC2)c(OC)c1 (stereo unspecified) | 848
Cn1nc(CNC(=O)c2ccc(F)c(F)c2)c2ccccc21 | 813
Cc1c2c(nn1-c1ccc(SCc3ccccc3Cl)nn1)CCC2 | 1380
COCCNC(=O)CSc1cc(N2CCN(c3ccccc3OC)CC2)ncn1 | 698
CCNC(=O)c1sc(-c2ccc(C)cc2)nc1C | 850
Cc1ccccc1C(=O)N1CC(C(=O)NCC(C)C)C(c2cccc(C(F)(F)F)c2)C1 (stereo unspecified) | 907
